Assay results published in patent US12037324B2, “Biarylmethyl heterocycles” (Université de Montréal, priority 2016, dated 2024).
pEC50: −log10 of the molar value.

Columns and labels:
Format in all cases: cell-based
[1] = target: T1, hAT1R (Homo sapiens, UniProt P30556); experiment: BRET β-arrestin2 biosensor assay, higher receptor expression (hAT1R 5 ng/well), HEK293 cells; details: for pEC50: High AT1R Expression
T1 sequence (P30556 1-359): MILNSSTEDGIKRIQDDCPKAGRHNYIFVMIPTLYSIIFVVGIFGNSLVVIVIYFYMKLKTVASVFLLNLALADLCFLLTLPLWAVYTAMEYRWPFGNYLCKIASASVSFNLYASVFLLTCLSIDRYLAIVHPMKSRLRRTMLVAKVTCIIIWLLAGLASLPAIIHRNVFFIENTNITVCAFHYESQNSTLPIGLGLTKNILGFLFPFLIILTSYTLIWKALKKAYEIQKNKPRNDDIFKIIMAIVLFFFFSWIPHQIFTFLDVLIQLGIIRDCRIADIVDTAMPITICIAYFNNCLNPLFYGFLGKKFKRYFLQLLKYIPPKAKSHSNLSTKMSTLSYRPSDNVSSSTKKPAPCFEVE

[2] = target: T2, AGTR1 (Homo sapiens, UniProt P30556); experiment: DiscoveRx β-arrestin2 recruitment assay (enzyme complementation, Pathunter CHO-K1 AGTR1 β-arrestin cell line); details: DiscoveRx β-arrestin2 recruitment; for DiscoveRx β-arrestin2 Ymax (%): maximal response
T2 construct: host or cells: Pathunter CHO-K1 AGTR1 β-arrestin cell line (CHO-K1)
T2 sequence (P30556 1-359): T1 sequence (P30556 1-359)
Experimental: In one aspect of the invention, signaling bias of compounds was assessed by comparing the relative activity of compounds to activate both the β-arrestin and Gq signaling pathways. In order to confirm signaling bias, compounds were studied in two different assay formats. DiscoveRx β-arrestin2 Recruitment and IP1 Assays β-arrestin2 recruitment to activated receptors can be assessed using an enzyme complementation method (Zhao, Jones et al. 2008). […] Cells (5000/well) were plated into 1536 well plates (Cellocoat plates, Greiner Bio One, Monroe, NC) 14-16 hours before each experiment in 20 μl DMEM/F12 medium (Thermo-Fisher Scientific, Carlsbad, CA) containing heat-inactivated 1% fetal bovine serum. Subsequently, the compounds of interest were added at varying concentrations to the wells in a volume of 200 nl and the cells incubated for 90 min at 37° C. The detection reagent (10 μl) was added to each well and the plates incubated at room temperature for 1 hour before measurement of chemiluminescence using an EnVision Multilabel Reader (Perkin-Elmer, Waltham, MA). The data are processed using Toolset for Runmaster QCMulti. Concentration-response curves are fitted and EC50s (agonist mode) and IC50s (antagonist mode) estimated using a 4-parameter logistic equation. Compound activities are reported as a relative percentage to the maximal effect of All in the assays.

[3] = target: T2, AGTR1; experiment: DiscoveRx IP1 accumulation assay (HTRF), agonist mode, Pathunter CHO-K1 AGTR1 β-arrestin cell line; details: for pEC50: read-out: IP-1 EC50
Experimental: In one aspect of the invention, signaling bias of compounds was assessed by comparing the relative activity of compounds to activate both the β-arrestin and Gq signaling pathways. In order to confirm signaling bias, compounds were studied in two different assay formats.
DiscoveRx β-arrestin2 Recruitment and IP1 Assays
Gq activation can be assessed by measuring the accumulation of inositol phosphates (e.g. IP3, IP1) that are liberated following activation of phospholipase C by Gq (Thomsen, Frazer et al. 2005). In the current invention we have utilized the DiscoveRx Pathunter CHO-K1 AGTR1 β-arrestin cell line to also measure IP1 accumulation in response to compounds. IP1 accumulation was measured in both agonist and antagonist modes. In agonist mode, cells are plated as above 14-16 hours before the experiment. The medium is then removed and compounds at varying concentrations added in a final volume of 20 μl. The cells are incubated at 37° C. for 90 min. IP1 accumulation detected using a commercial HTRF assay according to manufacturer's instructions (Cisbio, Bedford, MA). Specifically, 4 μl of D2-conjugate solution (diluted 1:20 in Cisbio HTRF assay buffer) is added to each well, followed by the addition of 4 μl of anti-IP1 cryptate diluted 1:20 in HTRF assay buffer and the plates incubated for 20 min at room temperature. 14 μl from each well is measured using an Envision multi-label reader and data processed using Toolset for Runmaster QCMulti. Concentration-response curves are fitted and EC50s (agonist mode) and IC50s (antagonist mode) estimated using a 4-parameter logistic equation. Compound activities are reported as a relative percentage to the maximal effect of All in the assays.

Row | SMILES | BRET β-Arrestin2 High AT1R Expression Ymax (%) [1] [%] | pEC50 [1] | pEC50 [2] | DiscoveRx β-arrestin2 Ymax (%) [2] [%] | IP-1 Ymax (%) [3] [%] | pEC50 [3]
1 | CCc1nc2c(C)cc(C)nc2n1Cc1ccc(-c2cc(-c3ccc(OC(F)(F)F)cc3)ccc2-c2nn[nH]n2)cc1 [Example 6] | 73.5 | 7.29 | 7.85 | 27.0 | 4.9 | 7.84
2 | CCc1nc2c(C)cc(C)nc2n1Cc1ccc(-c2cc(-c3ccc(C(F)(F)F)cc3)ccc2-c2nn[nH]n2)cc1 [Example 7] | 60.0 | 7.43 | 7.84 | 21.6 | 9.2 | 7.08
3 | CCc1nc2c(C)cc(C)nc2n1Cc1ccc(-c2cc(-c3cccs3)ccc2-c2nn[nH]n2)cc1 [Example 12] | 83.6 | 8.05 | 8.20 | 21.4 |  | < 6.00
4 | CCc1nc2c(C)cc(C)nc2n1Cc1ccc(-c2cc(-c3ccc4ncccc4c3)ccc2-c2nn[nH]n2)cc1 [Example 13] | 53.8 | 7.94 | 7.89 | 24.8 |  | < 6.00
5 | CCc1nc2c(C)cc(C)nc2n1Cc1ccc(-c2cc(-c3cccc4cnccc34)ccc2-c2nn[nH]n2)cc1 [Example 16] | 69.9 | 7.61 | 7.22 | 17.1 | 3.6 | 7.26
6 | CCc1nc2c(C)cc(C)nc2n1Cc1ccc(-c2cc(-c3cnn(C)c3)ccc2-c2nn[nH]n2)cc1 [Example 21] | 64.0 | 7.29 | 7.66 | 21.1 | 6.9 | 7.11
7 | CCc1nc2c(C)cc(C)nc2n1Cc1ccc(-c2cc(-c3cccn3C)ccc2-c2nn[nH]n2)cc1 [Example 22] | 57.1 | 7.47 | 7.99 | 14.8 | 2.4 | 7.46
8 | CCc1nc2c(C)cc(C)nc2n1Cc1ccc(-c2cc(-c3cccc(C(=O)N(C)C)c3)ccc2-c2nn[nH]n2)cc1 [Example 23] | 66.3 | 6.77 | 7.27 | 26.8 | 7.3 | 6.68
9 | CCc1nc2c(C)cc(C)nc2n1Cc1ccc(-c2cc(N3C(=O)c4ccccc4C3=O)ccc2-c2nn[nH]n2)cc1 [Example 27, 2-(4′-((2-ethyl-5,7-dimethyl-3H-imidazo[4,5-b]pyridin-3-yl)methyl)-6-(2H-tetrazol-5-yl)-[1,1′-biphenyl]-3-yl)isoindoline-1,3-dione] | 20.1 | 7.05 | 6.69 | 10.6 |  | < 4.00
10 | CCCCC(=O)N(Cc1ccc(-c2cc(-c3ccccc3)ccc2-c2nn[nH]n2)cc1)[C@H](C(=O)O)C(C)C [Example 34, (S)-2-(N-((6′-(2H-Tetrazol-5-yl)-[1,1′:3′,1″-terphenyl]-4-yl)methyl)pentanamido)-3-methylbutanoic acid] | 68.4 | 7.30 | 7.39 | 35.6 | 3.8 | 6.75
11 | CCCCc1nc(Cl)c(CO)n1Cc1ccc(-c2cc(-c3ccccc3)ccc2-c2nnn[nH]2)cc1 [Example 35, (1-((6′-(1H-Tetrazol-5-yl)-[1,1′:3′,1″-terphenyl]-4-yl)methyl)-2-butyl-4-chloro-1H-imidazol-5-yl)methanol] | 76.7 | 6.83 | 7.19 | 28.2 |  | < 4.30
12 | CCCCOC(=O)NS(=O)(=O)c1sc(-c2ccccc2C)cc1-c1ccc(Cn2c(CC)nc3c(C)cc(C)nc32)cn1 [Example 39, Butyl (3-(5-((2-ethyl-5,7-dimethyl-3H-imidazo[4,5-b]pyridin-3-yl)methyl)pyridin-2-yl)-5-(o-tolyl)thiophen-2-yl)sulfonylcarbamate] | 37.9 | 7.73 | 7.48 | 23.3 | 4.8 | 6.90
13 | CCCCOC(=O)NS(=O)(=O)c1sc(-c2ccccc2C)cc1-c1ccc(Cn2c(CC)nc3c(C)cc(C)nc32)cc1 [Example 40, Butyl (3-(4-((2-ethyl-5,7-dimethyl-3H-imidazo[4,5-b]pyridin-3-yl)methyl)phenyl)-5-(o-tolyl)thiophen-2-yl)sulfonylcarbamate] | 84.6 | 7.85 | 8.03 | 36.4 | 8.5 | 7.92
14 | CCCCOC(=O)NS(=O)(=O)c1sc(-c2ccccc2C(F)(F)F)cc1-c1ccc(Cn2c(CC)nc3c(C)cc(C)nc32)cc1 [Example 45, Butyl (3-(4-((2-ethyl-5,7-dimethyl-3H-imidazo[4,5-b]pyridin-3-yl)methyl)phenyl)-5-(2-(trifluoromethyl)phenyl)thiophen-2-yl)sulfonylcarbamate] | 92.2 | 7.46 | 7.61 | 60.3 | 14.5 | 7.84
15 | CCCCOC(=O)NS(=O)(=O)c1sc(-c2ccccc2C(F)(F)F)cc1-c1ccc(Cn2c(CC)nc3c(C)cc(C)nc32)cn1 [Example 46, Butyl (3-(5-((2-ethyl-5,7-dimethyl-3H-imidazo[4,5-b]pyridin-3-yl)methyl)pyridin-2-yl)-5-(2-(trifluoromethyl)phenyl)thiophen-2-yl)sulfonylcarbamate] | 84.8 | 7.88 | 7.49 | 45.1 | 15.4 | 6.45
16 | CCCCOC(=O)NS(=O)(=O)c1sc(-c2cccnc2OC)cc1-c1ccc(Cn2c(CC)nc3c(C)cc(C)nc32)cc1 [Example 47, Butyl (3-(4-((2-ethyl-5,7-dimethyl-3H-imidazo[4,5-b]pyridin-3-yl)methyl)phenyl)-5-(2-methoxypyridin-3-yl)thiophen-2-yl)sulfonylcarbamate] | 56.6 | 7.83 | 8.00 | 24.5 | 3.8 | 8.21
17 | CCCCOC(=O)NS(=O)(=O)c1sc(-c2cccnc2OC)cc1-c1ccc(Cn2c(CC)nc3c(C)cc(C)nc32)cn1 [Example 48, Butyl (3-(5-((2-ethyl-5,7-dimethyl-3H-imidazo[4,5-b]pyridin-3-yl)methyl)pyridin-2-yl)-5-(2-methoxypyridin-3-yl)thiophen-2-yl)sulfonylcarbamate] | 43.8 | 7.39 | 6.97 | 20.6 | 10.0 | 6.45
